Experimental data: patent publication US20100234459A1, “MEDICALL USE OF 3-(2,2,2,-TRIMETHYLYHDRAZINIUM) PROPIONATE HDROGEN FUMARATE AND DIHYDROGEN PHOSEPHATE” (JSC GRINDEKS, priority 2007, published 2010)

System: rabbit aorta
Test: Anti-atherosclerotic experiment: cholesterol-fed rabbits, aorta stained with Oil red O
Format: in vivo, Chinchilla rabbits
Conditions: 1% cholesterol diet, 15 weeks, in drinking water; dihydrogen phosphate 165 mg/kg, hydrogen fumarate 174 mg/kg; compared with control and Meldonium dihydrate (124 mg/kg) groups
Protocol: Pharmacological experiment was carried out to examine the anti-atherosclerotic effect of Meldonium dihydrogen phosphate or Meldonium hydrogen fumarate in the aorta.
The experiments with Meldonium salt such as Meldonium dihydrogen phosphate or Meldonium hydrogen fumarate, were performed in 38 Chinchilla rabbits weighing 2.5-3.0 kg. The rabbits were randomly divided into 4 groups: Control (n=11), Meldonium dihydrate group (n=9) and Meldonium dihydrogen phosphate group (n=9) and Meldonium hydrogen fumarate group (n=9).
Experimental atherosclerosis, i.e. serum hyperlipidaemia and the atherosclerotic manifestations in the aorta, was induced by administering 1% cholesterol by weight together with standard diet.
The rabbits were fed with standard diet with 1% cholesterol dissolved in the sunflower seed oil (4% from the total amount of food). The diet was enriched with cholesterol as follows: 10 kg standard food for rabbits was heated to 60° C. and was mixed with 100 g warm cholesterol dissolved in 400 ml sunflower seed oil. The rabbits received 200 g of this food per day.
The experimental groups were given Meldonium dihydrate, Meldonium dihydrogen phosphate and Meldonium hydrogen fumarate, in a dose 124 mg/kg, 165 mg/kg and 174 mg/kg. The preparations were added to drinking water.
After 15 weeks the rabbits were sacrificed. Heart, aorta and liver were collected for examination. […]

Row | Compound | reduction of the area of atherosclerotic plaque in rabbit aorta [fold]
1 | C[N+](C)(C)NCCC(=O)O.O=P([O-])(O)O [Meldonium dihydrogen phosphate] | > 2
2 | C[N+](C)(C)NCCC(=O)O.O=C([O-])C=CC(=O)O [Meldonium hydrogen fumarate] | > 2
